This note sets out measurements from patent US12378224B2 (Dong-A Socio Holdings Co., Ltd., priority 2016, dated 2025).

The target of the assay is human MER (528-end) (Homo sapiens (Human), UniProt Q12866). The experiment in a line: HTRF Kinase Activity Biochemical Assay (KinEASE-TK). Particulars: 10 uM ATP. The method, boiled down: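 Recombinant human MER (528-end) phosphorylated biotin-TK peptide substrate, 1 h at room temperature. Reaction stopped with detection buffer containing 0.375 nM Eu3+-cryptate anti-TK antibody and 0.062 uM streptavidin-XL665, 1 h further. Activity taken as HTRF ratio 665/620 nm ×10,000, 340 nm excitation.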
On the technique in general: TR-FRET usually uses a lanthanide donor and a delayed reading to cut background.

human MER (528-end), sequence (Q12866 528-999 limits assumed): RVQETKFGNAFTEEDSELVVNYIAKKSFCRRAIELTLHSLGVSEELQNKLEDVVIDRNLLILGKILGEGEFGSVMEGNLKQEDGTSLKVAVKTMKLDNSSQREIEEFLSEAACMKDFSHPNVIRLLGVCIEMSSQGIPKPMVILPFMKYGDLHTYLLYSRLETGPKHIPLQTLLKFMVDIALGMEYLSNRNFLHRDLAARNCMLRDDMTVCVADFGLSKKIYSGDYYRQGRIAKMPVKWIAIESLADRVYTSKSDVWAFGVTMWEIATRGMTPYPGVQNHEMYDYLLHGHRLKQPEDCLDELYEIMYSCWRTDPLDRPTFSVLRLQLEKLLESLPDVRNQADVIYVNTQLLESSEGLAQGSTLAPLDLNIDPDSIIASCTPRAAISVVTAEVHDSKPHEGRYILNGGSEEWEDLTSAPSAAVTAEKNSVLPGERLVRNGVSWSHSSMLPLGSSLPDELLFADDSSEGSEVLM

The term IC50 denotes the point on the concentration scale where inhibition reaches its midpoint. Low readings indicate greater potency, high ones weaker potency. Consider `Nc1ncc(-c2cnn(C3CCNCC3)c2)cc1C(=O)N[C@@H]1CCN(Cc2c(Cl)cccc2Cl)C1` [Example 159, (R)-2-amino-N-(1-(2,6-dichlorobenzyl)pyrrolidin-3-yl)-5-(1-(piperidin-4-yl)-1H-pyrazol-4-yl)nicotinamide], for which the IC50 is > 1000 nM. `Nc1ncc(-c2cnn(C3CCNCC3)c2)cc1C(=O)N[C@@H]1CCN(Cc2ccc(F)c(F)c2)C1` [Example 160, (R)-2-amino-N-(1-(3,4-difluorobenzyl)pyrrolidin-3-yl)-5-(1-(piperidin-4-yl)-1H-pyrazol-4-yl)nicotinamide]: the IC50 was > 1000 nM. As for `Nc1ncc(-c2cnn(C3CCNCC3)c2)cc1C(=O)N[C@@H]1CCN(Cc2c(F)ccc(F)c2F)C1` [Example 162, (R)-2-amino-5-(1-(piperidin-4-yl)-1H-pyrazol-4-yl)-N-(1-(2,3,6-trifluorobenzyl)pyrrolidin-3-yl)nicotinamide], the figure is > 1000 nM; as for `Cc1nc(C)c(CN2CC[C@@H](NC(=O)c3cc(-c4cnn(C5CCNCC5)c4)cnc3N)C2)s1` [Example 163, (R)-2-amino-N-(1-((2,4-dimethylthiazol-5-yl)methyl)pyrrolidin-3-yl)-5-(1-(piperidin-4-yl)-1H-pyrazol-4-yl)nicotinamide], > 1000 nM.

In the case of `Cc1ccc(C)c(CN2CC[C@@H](NC(=O)c3cc(-c4cnn(C5CCNCC5)c4)cnc3N)C2)c1` [Example 166, (R)-2-amino-N-(1-(2,5-dimethylbenzyl)pyrrolidin-3-yl)-5-(1-(piperidin-4-yl)-1H-pyrazol-4-yl)nicotinamide], the IC50 was > 1000 nM. The result for `Nc1ncc(-c2cnn(C3CCNCC3)c2)cc1C(=O)N[C@@H]1CCN(Cc2ccccc2C(F)(F)F)C1` [Example 168, (R)-2-amino-5-(1-(piperidin-4-yl)-1H-pyrazol-4-yl)-N-(1-(2-(trifluoromethyl)benzyl)pyrrolidin-3-yl)nicotinamide] reads > 1000 nM. As for `Nc1ncc(-c2cnn(C3CCNCC3)c2)cc1C(=O)N[C@@H]1CCN(CC2CC=CCC2)C1` (stereo partly drawn) [Example 169, 2-amino-N-((3R)-1-(cyclohex-3-en-1-ylmethyl)pyrrolidin-3-yl)-5-(1-(piperidin-4-yl)-1H-pyrazol-4-yl)nicotinamide], the figure is > 1000 nM; as for `CC1(C)[C@H]2CC=C(CN3CC[C@@H](NC(=O)c4cc(-c5cnn(C6CCNCC6)c5)cnc4N)C3)[C@@H]1C2` [Example 170, 2-amino-N—((R)-1-(((1R,5S)-6,6-dimethylbicyclo[3.1.1]hept-2-en-2-yl)methyl)pyrrolidin-3-yl)-5-(1-(piperidin-4-yl)-1H-pyrazol-4-yl)nicotinamide], > 1000 nM; as for `Cn1cc(-c2cnc(N)c(C(=O)N[C@@H]3CCN(Cc4ccccc4)C3)c2)cn1` [Example 205, (R)-2-amino-N-(1-benzylpyrrolidin-3-yl)-5-(1-methyl-1H-pyrazol-4-yl)nicotinamide], > 1000 nM. The result for `Cn1cc(-c2cnc(N)c(C(=O)N[C@H]3CCN(Cc4ccccc4)C3)c2)cn1` [Example 207, (S)-2-amino-N-(1-benzylpyrrolidin-3-yl)-5-(1-methyl-1H-pyrazol-4-yl)nicotinamide] reads > 1000 nM; that for `Cn1cc(-c2cnc(N)c(C(=O)N[C@@H]3CCN(Cc4ccccc4Cl)C3)c2)cn1` [Example 208, (R)-2-amino-N-(1-(2-chlorobenzyl)pyrrolidin-3-yl)-5-(1-methyl-1H-pyrazol-4-yl)nicotinamide], 100 to 1000 nM.

Regarding `COc1cccc(CN2CC[C@@H](NC(=O)c3cc(-c4cnn(C)c4)cnc3N)C2)c1` [Example 209, (R)-2-amino-N-(1-(3-methoxybenzyl)pyrrolidin-3-yl)-5-(1-methyl-1H-pyrazol-4-yl)nicotinamide], the IC50 was > 1000 nM. As for `Cn1cc(-c2cnc(N)c(C(=O)N[C@@H]3CCN(Cc4ccc(Cl)cc4)C3)c2)cn1` [Example 210, (R)-2-amino-N-(1-(4-chlorobenzyl)pyrrolidin-3-yl)-5-(1-methyl-1H-pyrazol-4-yl)nicotinamide], the figure is 100 to 1000 nM. As for `CCc1ccc(CN2CC[C@@H](NC(=O)c3cc(-c4cnn(C)c4)cnc3N)C2)cc1` [Example 211, (R)-2-amino-N-(1-(4-ethylbenzyl)pyrrolidin-3-yl)-5-(1-methyl-1H-pyrazol-4-yl)nicotinamide], the IC50 was > 1000 nM. As for `CC(C)c1ccc(CN2CC[C@@H](NC(=O)c3cc(-c4cnn(C)c4)cnc3N)C2)cc1` [Example 212, (R)-2-amino-N-(1-(4-isopropylbenzyl)pyrrolidin-3-yl)-5-(1-methyl-1H-pyrazol-4-yl)nicotinamide], the figure is > 1000 nM; as for `Cn1cc(-c2cnc(N)c(C(=O)N[C@@H]3CCN(Cc4ccc(Cl)c(Cl)c4)C3)c2)cn1` [Example 213, (R)-2-amino-N-(1-(3,4-dichlorobenzyl)pyrrolidin-3-yl)-5-(1-methyl-1H-pyrazol-4-yl)nicotinamide], > 1000 nM; as for `Cc1ccc(CN2CC[C@@H](NC(=O)c3cc(-c4cnn(C)c4)cnc3N)C2)cc1C` [Example 214, (R)-2-amino-N-(1-(3,4-dimethylbenzyl)pyrrolidin-3-yl)-5-(1-methyl-1H-pyrazol-4-yl)nicotinamide], > 1000 nM. For `COc1cc(CN2CC[C@@H](NC(=O)c3cc(-c4cnn(C)c4)cnc3N)C2)cc(OC)c1` [Example 216, (R)-2-amino-N-(1-(3,5-dimethoxybenzyl)pyrrolidin-3-yl)-5-(1-methyl-1H-pyrazol-4-yl)nicotinamide], the IC50 was > 1000 nM. As for `COc1ccc(OC)c(CN2CC[C@@H](NC(=O)c3cc(-c4cnn(C)c4)cnc3N)C2)c1` [Example 218, (R)-2-amino-N-(1-(2,5-dimethoxybenzyl)pyrrolidin-3-yl)-5-(1-methyl-1H-pyrazol-4-yl)nicotinamide], the figure is > 1000 nM; as for `COc1ccc(O)c(CN2CC[C@@H](NC(=O)c3cc(-c4cnn(C)c4)cnc3N)C2)c1` [Example 219, (R)-2-amino-N-(1-(2-hydroxy-5-methoxybenzyl)pyrrolidin-3-yl)-5-(1-methyl-1H-pyrazol-4-yl)nicotinamide], > 1000 nM.

For the compound `COc1ccc(CN2CC[C@@H](NC(=O)c3cc(-c4cnn(C)c4)cnc3N)C2)c(OC)c1` [Example 220, (R)-2-amino-N-(1-(2,4-dimethoxybenzyl)pyrrolidin-3-yl)-5-(1-methyl-1H-pyrazol-4-yl)nicotinamide], the IC50 is > 1000 nM. As for `Cn1cc(-c2cnc(N)c(C(=O)N[C@@H]3CCN(Cc4cc(Cl)cc(Cl)c4)C3)c2)cn1` [Example 224, (R)-2-amino-N-(1-(3,5-dichlorobenzyl)pyrrolidin-3-yl)-5-(1-methyl-1H-pyrazol-4-yl)nicotinamide], the figure is > 1000 nM; as for `Cn1cc(-c2cnc(N)c(C(=O)N[C@@H]3CCN(Cc4ccccc4-c4ccccc4)C3)c2)cn1` [Example 225, (R)—N-(1-([1,1′-biphenyl]-2-ylmethyl)pyrrolidin-3-yl)-2-amino-5-(1-methyl-1H-pyrazol-4-yl)nicotinamide], 100 to 1000 nM; as for `Cn1cc(-c2cnc(N)c(C(=O)N[C@@H]3CCN(Cc4ccc(-c5ccccc5)cc4)C3)c2)cn1` [Example 226, (R)—N-(1-([1,1′-biphenyl]-4-ylmethyl)pyrrolidin-3-yl)-2-amino-5-(1-methyl-1H-pyrazol-4-yl)nicotinamide], > 1000 nM. As for `Cn1cc(-c2cnc(N)c(C(=O)N[C@@H]3CCN(CCCc4ccccc4)C3)c2)cn1` [Example 227, (R)-2-amino-5-(1-methyl-1H-pyrazol-4-yl)-N-(1-(3-phenylpropyl)pyrrolidin-3-yl)nicotinamide], the figure is > 1000 nM. As for `Cn1cc(-c2cnc(N)c(C(=O)N[C@@H]3CCN(CC=Cc4ccccc4)C3)c2)cn1` [Example 228, (R)-2-amino-N-(1-cinnamylpyrrolidin-3-yl)-5-(1-methyl-1H-pyrazol-4-yl)nicotinamide], the figure is 100 to 1000 nM; as for `Cn1cc(-c2cnc(N)c(C(=O)N[C@@H]3CCN(CCOCc4ccccc4)C3)c2)cn1` [Example 229, (R)-2-amino-N-(1-(2-(benzyloxy)ethyl)pyrrolidin-3-yl)-5-(1-methyl-1H-pyrazol-4-yl)nicotinamide], > 1000 nM; as for `Cn1cc(-c2cnc(N)c(C(=O)N[C@@H]3CCN(CCc4ccccc4)C3)c2)cn1` [Example 230, (R)-2-amino-5-(1-methyl-1H-pyrazol-4-yl)-N-(1-phenethylpyrrolidin-3-yl)nicotinamide], > 1000 nM. With `Cn1cc(-c2cnc(N)c(C(=O)N[C@@H]3CCN(Cc4cccc(Br)c4)C3)c2)cn1` [Example 231, (R)-2-amino-N-(1-(3-bromobenzyl)pyrrolidin-3-yl)-5-(1-methyl-1H-pyrazol-4-yl)nicotinamide], the IC50 was > 1000 nM. The result for `Cn1cc(-c2cnc(N)c(C(=O)N[C@@H]3CCN(Cc4ccccc4Br)C3)c2)cn1` [Example 232, (R)-2-amino-N-(1-(2-bromobenzyl)pyrrolidin-3-yl)-5-(1-methyl-1H-pyrazol-4-yl)nicotinamide] reads 100 to 1000 nM; that for `Cn1cc(-c2cnc(N)c(C(=O)N[C@@H]3CCN(Cc4ccc(F)c(Br)c4)C3)c2)cn1` [Example 233, (R)-2-amino-N-(1-(3-bromo-4-fluorobenzyl)pyrrolidin-3-yl)-5-(1-methyl-1H-pyrazol-4-yl)nicotinamide], > 1000 nM; that for `Nc1ncc(-c2ccc(CO)cc2)cc1C(=O)N[C@@H]1CCN(Cc2ccc(Cl)cc2)C1` [Example 237, (R)-2-amino-N-(1-(4-chlorobenzyl)pyrrolidin-3-yl)-5-(4-(hydroxymethyl)phenyl)nicotinamide], 100 to 1000 nM. As for `Cn1cc(-c2cnc(N)c(C(=O)N[C@@H]3CCN(Cc4cccc(-c5cccc(CO)c5)c4)C3)c2)cn1` [Example 243, (R)-2-amino-N-(1-((3′-(hydroxymethyl)-[1,1′-biphenyl]-3-yl)methyl)pyrrolidin-3-yl)-5-(1-methyl-1H-pyrazol-4-yl)nicotinamide], the figure is 100 to 1000 nM.
